The record followed here is PubChem BioAssay (NCI).

Molecules are shown by their SMILES. Several values for one entry are separate records, joined by “and”; a condition that tells them apart may be missing. Equal values may be shown once.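 Step 1: Grow cells in 96-well plates. Step 2: Expose to compound for 48 hours at 5 concentrations. Step 3: Interpolate endpoints linearly; if unreached, use highest concentration. Abbreviation: GI50, concentration required for 50% inhibition of growth. TGI is the concentration that stops growth completely.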 Where only a bound is given, the exact number is not on record here.

For the experiment, the system named is MDA-MB-468 breast. The experiment in a line: NCI tumour cell line growth inhibition, 48 h.
As to `C/C(Cc1ccc(Cl)cc1)=C(/c1ccc(Cl)cc1)c1ccc(OCCN(C)C)cc1`, the GI50 was 2970 nM and the TGI turned out to be 7760 nM.

In the case of `CNCCCNc1nc2ccccc2c2c(=O)c3cc(Cl)ccc3sc12`, the GI50 was 1260 nM and the TGI is 2830 nM.

Regarding `O=[N+]([O-])c1ccc2ncccc2c1Cl`, the GI50 is 1870 nM and the TGI is 4810 nM.

On to `C/C(=C\c1ccc(Cl)c(Cl)c1)[N+](=O)[O-]`, for which the GI50 was 1550 nM and the TGI came to 3020 nM.

For the compound `CC(=O)OCC1O[C@@H]([S-])C(OC(C)=O)[C@H](OC(C)=O)[C@@H]1OC(C)=O.[Au+].c1ccc(CN2[CH-]N(Cc3ccccc3)C(c3ccccc3)=C2c2ccccc2)cc1`, the GI50 was 1540 nM and the TGI worked out at 3260 nM.

Regarding `O=C1CCc2c(sc3[nH]c(=S)n(Cc4ccccc4)c(=O)c23)C1`, the GI50 is 2950 nM and the TGI was found to be 9310 nM.

On to `CC(=O)[O][Hg][c]1ccccc1`, for which the GI50 was 154 nM and the TGI came out at 341 nM.

In the case of `O=C(O)C1(Cc2cccc(Nc3nccs3)n2)CCC(Oc2cccc(Cl)c2F)CC1` (stereo not given), the GI50 was 526 nM and the TGI came to 34600 nM.

As to `COc1ccc(-c2cc(-c3cc(OC)c(OC)c(OC)c3)c(C#N)c(N3CCOCC3)n2)cc1O`, the GI50 was 13400 nM and the TGI was greater than 100000 nM.

As for `CS(=O)(=O)CCNCc1ccc(-c2ccc3ncnc(Nc4ccc(OCc5ccccc5)c(Cl)c4)c3c2)o1`, the GI50 is 10.7 nM and the TGI was found to be 196 nM.

Take `COc1ccc(Cn2cc3c(c2-c2cc(OC)c(OC)c(OC)c2)CCc2cnoc2-3)cc1[N+](=O)[O-]`: the GI50 is 376 nM and the TGI worked out at 4220 nM.

Take `CCCSC1=NC2C(N(CC)C(=O)N2CC)N1/N=C/C=C/c1ccccc1[N+](=O)[O-]` (stereo not given): the GI50 was 3060 nM and the TGI was greater than 100000 nM.

In the case of `O=C(O)c1ccc2c(c1)nc(Nc1cccc(Cl)c1)c1ccncc12`, the GI50 is 1050 nM and 1670 nM; the TGI was 4840 nM and 8970 nM.

`C=C1C(=O)O[C@H]2[C@H]1CC/C(COC(=O)c1ccc(C#N)cc1)=C\CC[C@@]1(C)O[C@@H]21`: the GI50 is 1030 nM and the TGI was determined as 3130 nM.

As for `O=C(OCc1ccc2c(Cl)cc(Cl)c(O)c2n1)c1cc2ccccc2[nH]1`, the GI50 was 238 nM and the TGI is 626 nM.

For `COc1ccc(-c2nc3cc(Cl)c(Cl)cc3n2CC(=O)N=Nc2c(O)[nH]c3ccc(Cl)cc23)cc1`, the GI50 is 1700 nM and the TGI worked out at 3400 nM.

On to `Cc1c(NC(=O)OC[C@@H]2COCCN2)cn2ncnc(Nc3ccc4c(cnn4Cc4cccc(F)c4)c3)c12`, for which the GI50 was 120 nM and 45.4 nM; the TGI is 1120 nM and 329 nM.

In the case of `CCOC(=O)Nc1ccc(-c2nc(-c3cccc(OC)c3)c(-c3ccnc(Br)c3)[nH]2)cc1`, the GI50 is 1670 nM and the TGI amounted to 4910 nM.

As to `CCC1CCc2nc3sc(C(=O)Nc4ccccc4C)c(N)c3cc2C1` (stereo not given), the GI50 is 244 nM and the TGI was 742 nM.

On to `COc1cnc2c(c1)C(=O)c1c-2n(CCCN2CCCC2)c(=O)c2cc(F)ccc12`, for which the GI50 is 175 nM and the TGI was determined as 517 nM.

As for `Cc1nc2n(c(=O)c1CCN1CCC(c3noc4cc(F)ccc34)CC1)CCCC2`, the GI50 is 34000 nM and the TGI was greater than 50000 nM.

On to `CCCCCCCC(=O)SCC/C=C/[C@@H]1CC(=O)NCc2nc(co2)C2=N[C@@](C)(CS2)C(=O)N[C@@H](C(C)C)C(=O)O1`, for which the GI50 was 29.1 nM and the TGI came out at 23500 nM.

`COc1cccc(C2C3=C(COC3=O)Oc3cc4c(cc32)OCO4)c1` (stereo not given): the GI50 is 81.7 nM and the TGI is greater than 100000 nM.

Regarding `O=C(CCCCCCSc1nc(-c2ccc(Cl)cc2)cc(-c2ccc(Cl)cc2)n1)NO`, the GI50 is 1620 nM and the TGI was determined as 6380 nM.

As to `CN(C[C@@H]1COCCO1)S(=O)(=O)Nc1ccc2ccc3ncc(-c4cnn(C)c4)cc3c(=O)c2c1`, the GI50 was 7130 nM and the TGI is greater than 100000 nM.
